Measurements reported in patent publication US4352792A, “3-Alkoxyflavone antiviral agents” (priority 1979, dated 1982).
Values after ≈ are worked out from the molar mass of the structure shown. Like-named read-outs stand apart in the source and are kept apart here.

Assays:
[1] = system: rhinovirus HGP; assay: Inhibition of viral cytopathogenic effect in HeLa cells (rhinovirus HGP); format: cell-based; conditions: Enterovirus, HeLa, 48 h, read-out: IC50 rhinovirus HGP
[2] = system: Coxsackie virus B1; assay: Inhibition of viral cytopathogenic effect in HeLa cells (Coxsackie virus B1); format: cell-based; conditions: for MIC: read-out: Minimum inhibitory concentration; for IC50: HeLa, 24 h, read-out: IC50 Coxsackie virus B1
[3] = system: rhinovirus type 1A; assay: in vitro antiviral spectrum; format: cell-based; conditions: Enterovirus, read-out: Minimum inhibitory concentration
[4] = system: rhinovirus type 2; assay: in vitro antiviral spectrum; format: cell-based; conditions: Enterovirus, read-out: Minimum inhibitory concentration
[5] = system: rhinovirus type 3; assay: in vitro antiviral spectrum; format: cell-based; conditions: Enterovirus, read-out: Minimum inhibitory concentration
[6] = system: rhinovirus type 4; assay: in vitro antiviral spectrum; format: cell-based; conditions: Enterovirus, read-out: Minimum inhibitory concentration
[7] = system: rhinovirus type 9; assay: in vitro antiviral spectrum; format: cell-based; conditions: Enterovirus, read-out: Minimum inhibitory concentration
[8] = system: rhinovirus type 13; assay: in vitro antiviral spectrum; format: cell-based; conditions: Enterovirus, read-out: Minimum inhibitory concentration
[9] = system: rhinovirus type 14; assay: in vitro antiviral spectrum; format: cell-based; conditions: Enterovirus, read-out: Minimum inhibitory concentration
[10] = system: rhinovirus type 16; assay: in vitro antiviral spectrum; format: cell-based; conditions: Enterovirus, read-out: Minimum inhibitory concentration
[11] = system: rhinovirus type 17; assay: in vitro antiviral spectrum; format: cell-based; conditions: Enterovirus, read-out: Minimum inhibitory concentration
[12] = system: rhinovirus type 21; assay: in vitro antiviral spectrum; format: cell-based; conditions: Enterovirus, read-out: Minimum inhibitory concentration
[13] = system: rhinovirus type 26; assay: in vitro antiviral spectrum; format: cell-based; conditions: Enterovirus, read-out: Minimum inhibitory concentration
[14] = system: rhinovirus type 30; assay: in vitro antiviral spectrum; format: cell-based; conditions: Enterovirus, read-out: Minimum inhibitory concentration
[15] = system: rhinovirus type 32; assay: in vitro antiviral spectrum; format: cell-based; conditions: Enterovirus, read-out: Minimum inhibitory concentration
[16] = system: rhinovirus type 34; assay: in vitro antiviral spectrum; format: cell-based; conditions: Enterovirus, read-out: Minimum inhibitory concentration
[17] = system: rhinovirus type 36; assay: in vitro antiviral spectrum; format: cell-based; conditions: Enterovirus, read-out: Minimum inhibitory concentration
[18] = system: rhinovirus type 39; assay: in vitro antiviral spectrum; format: cell-based; conditions: Enterovirus, read-out: Minimum inhibitory concentration
[19] = system: rhinovirus type 44; assay: in vitro antiviral spectrum; format: cell-based; conditions: Enterovirus, read-out: Minimum inhibitory concentration
[20] = system: rhinovirus type 47; assay: in vitro antiviral spectrum; format: cell-based; conditions: Enterovirus, read-out: Minimum inhibitory concentration
[21] = system: rhinovirus type 50; assay: in vitro antiviral spectrum; format: cell-based; conditions: Enterovirus, read-out: Minimum inhibitory concentration
[22] = system: rhinovirus type 53; assay: in vitro antiviral spectrum; format: cell-based; conditions: Enterovirus, read-out: Minimum inhibitory concentration
[23] = system: rhinovirus type 55; assay: in vitro antiviral spectrum; format: cell-based; conditions: Enterovirus, read-out: Minimum inhibitory concentration
[24] = system: Coxsackie virus A21; assay: in vitro antiviral spectrum; format: cell-based; conditions: read-out: Minimum inhibitory concentration
[25] = system: ECHO virus type 9; assay: in vitro antiviral spectrum; format: cell-based; conditions: read-out: Minimum inhibitory concentration
[26] = system: ECHO virus type 11; assay: in vitro antiviral spectrum; format: cell-based; conditions: read-out: Minimum inhibitory concentration
[27] = system: ECHO virus type 12; assay: in vitro antiviral spectrum; format: cell-based; conditions: read-out: Minimum inhibitory concentration
[28] = system: ECHO virus type 19; assay: in vitro antiviral spectrum; format: cell-based; conditions: read-out: Minimum inhibitory concentration
[29] = system: poliovirus type 1; assay: microbe, parasite or virus in culture; format: cell-based; conditions: Enterovirus C, read-out: Minimum inhibitory concentration
[30] = system: rhinoviruses HGP, 1A and Coxsackie virus B1; assay: Inhibition of viral replication in HeLa cells; format: cell-based; conditions: concentrations of 0.5 to 2 μg/ml, HeLa cells (FIG. 1)
[31] = system: HeLa cell; assay: HeLa cell growth; format: cell-based; conditions: 0.5 to 2 μg/ml
[32] = acute toxicity in mice; conditions: mouse, in vivo, day 21
[33] = system: Coxsackie virus B1; assay: Anti-Coxsackie virus activity, lethal infection in mice; conditions: Mus musculus, 504 h, read-out: Survival

**Q.** For `COc1cc(O)c2c(=O)c(OC)c(-c3ccc(O)c(OC)c3)oc2c1` [4',5-dihydroxy-3,3',7-trimethoxyflavone], which IC50 [1] is on record?
**A.** 0.1 µg/mL (≈ 0.29 µM)

**Q.** And the MIC ([2]; Coxsackie virus B1)?
**A.** 0.1 to 0.2 µg/mL (≈ 0.29 to 0.581 µM)

**Q.** What about the IC50 [2] of the same compound?
**A.** 0.1 to 0.2 µg/mL (≈ 0.29 to 0.581 µM)

**Q.** What about the MIC ([3]; rhinovirus type 1A) of the same compound?
**A.** 0.03 µg/mL (≈ 0.0871 µM)

**Q.** And the MIC ([4]; rhinovirus type 2)?
**A.** 0.1 µg/mL (≈ 0.29 µM)

**Q.** What about the MIC ([5]; rhinovirus type 3) of the same compound?
**A.** 0.1 µg/mL (≈ 0.29 µM)

**Q.** And the MIC ([6]; rhinovirus type 4)?
**A.** 1 µg/mL (≈ 2.9 µM)

**Q.** And the MIC ([7]; rhinovirus type 9)?
**A.** 0.1 µg/mL (≈ 0.29 µM)

**Q.** And the MIC ([8]; rhinovirus type 13)?
**A.** 0.3 to 1 µg/mL (≈ 0.871 to 2.9 µM)

**Q.** And the MIC ([9]; rhinovirus type 14)?
**A.** 0.1 µg/mL (≈ 0.29 µM)

**Q.** What about the MIC ([10]; rhinovirus type 16) of the same compound?
**A.** 0.3 µg/mL (≈ 0.871 µM)

**Q.** And the MIC ([11]; rhinovirus type 17)?
**A.** 0.3 µg/mL (≈ 0.871 µM)

**Q.** And the MIC ([12]; rhinovirus type 21)?
**A.** 0.3 µg/mL (≈ 0.871 µM)

**Q.** And the MIC ([13]; rhinovirus type 26)?
**A.** 0.3 µg/mL (≈ 0.871 µM)

**Q.** What about the MIC ([14]; rhinovirus type 30) of the same compound?
**A.** 0.03 to 0.1 µg/mL (≈ 0.0871 to 0.29 µM)

**Q.** What about the MIC ([15]; rhinovirus type 32) of the same compound?
**A.** 0.1 µg/mL (≈ 0.29 µM)

**Q.** And the MIC ([16]; rhinovirus type 34)?
**A.** 0.3 µg/mL (≈ 0.871 µM)

**Q.** What about the MIC ([17]; rhinovirus type 36) of the same compound?
**A.** 0.3 µg/mL (≈ 0.871 µM)

**Q.** What about the MIC ([18]; rhinovirus type 39) of the same compound?
**A.** 0.1 µg/mL (≈ 0.29 µM)

**Q.** And the MIC ([19]; rhinovirus type 44)?
**A.** 0.05 to 0.5 µg/mL (≈ 0.145 to 1.45 µM)

**Q.** And the MIC ([20]; rhinovirus type 47)?
**A.** 0.3 µg/mL (≈ 0.871 µM)

**Q.** And the MIC ([21]; rhinovirus type 50)?
**A.** 0.3 µg/mL (≈ 0.871 µM)

**Q.** And the MIC ([22]; rhinovirus type 53)?
**A.** 0.1 µg/mL (≈ 0.29 µM)

**Q.** What about the MIC ([23]; rhinovirus type 55) of the same compound?
**A.** 0.3 µg/mL (≈ 0.871 µM)

**Q.** What about the MIC [24] of the same compound?
**A.** 0.1 to 0.3 µg/mL (≈ 0.29 to 0.871 µM)

**Q.** What about the MIC [25] of the same compound?
**A.** 0.1 to 0.3 µg/mL (≈ 0.29 to 0.871 µM)

**Q.** And the MIC [26]?
**A.** 0.1 to 0.3 µg/mL (≈ 0.29 to 0.871 µM)

**Q.** And the MIC [27]?
**A.** 0.1 to 0.3 µg/mL (≈ 0.29 to 0.871 µM)

**Q.** What about the MIC [28] of the same compound?
**A.** 0.1 to 0.3 µg/mL (≈ 0.29 to 0.871 µM)

**Q.** What about the MIC [29] of the same compound?
**A.** 0.1 to 0.3 µg/mL (≈ 0.29 to 0.871 µM)

**Q.** What about the “reduction of viral replication” value [30] of the same compound?
**A.** reduces the viral replication quite considerably

**Q.** What about the “effect on HeLa cell growth” value [31] of the same compound?
**A.** HeLa cell growth is not affected

**Q.** What about the LD50 at 504 h ([32]; ip, single dose i.p., dissolved in dimethyl sulfoxide, read-out: LD50 i.p.) of the same compound?
**A.** > 1000 mg/kg

**Q.** And the LD50 at 504 h ([32]; po, single dose p.o., suspended in 0.5% carboxymethylcellulose, read-out: LD50 p.o.)?
**A.** > 5000 mg/kg

**Q.** What about the responders at 10 mg/kg ([33]; ip) of the same compound?
**A.** 10%

**Q.** And the responders at 20 mg/kg ([33]; ip)?
**A.** 20%

**Q.** And the responders at 20 mg/kg ([33]; po)?
**A.** 10%

**Q.** What about the responders at 40 mg/kg ([33]; po) of the same compound?
**A.** 30%

**Q.** With `COc1cc(O)c2c(=O)c(OC)c(-c3ccc(O)cc3)oc2c1` [4',5-dihydroxy-3,7-dimethoxyflavone] as the compound, how does the IC50 [1] read?
**A.** 0.1 µg/mL (≈ 0.318 µM)

**Q.** And the IC50 [2]?
**A.** 0.1 µg/mL (≈ 0.318 µM)

**Q.** And the MIC [2]?
**A.** 0.1 µg/mL (≈ 0.318 µM)

**Q.** What about the MIC [3] of the same compound?
**A.** 0.03 µg/mL (≈ 0.0955 µM)

**Q.** And the MIC [4]?
**A.** 0.1 µg/mL (≈ 0.318 µM)

**Q.** And the MIC [5]?
**A.** 0.3 µg/mL (≈ 0.955 µM)

**Q.** And the MIC [6]?
**A.** 0.3 to 1 µg/mL (≈ 0.955 to 3.18 µM)

**Q.** And the MIC [7]?
**A.** 0.3 µg/mL (≈ 0.955 µM)

**Q.** And the MIC [8]?
**A.** 0.3 to 1 µg/mL (≈ 0.955 to 3.18 µM)

**Q.** What about the MIC [9] of the same compound?
**A.** 0.3 µg/mL (≈ 0.955 µM)

**Q.** And the MIC [10]?
**A.** 0.3 to 1 µg/mL (≈ 0.955 to 3.18 µM)

**Q.** What about the MIC [11] of the same compound?
**A.** 0.1 µg/mL (≈ 0.318 µM)

**Q.** And the MIC [12]?
**A.** 0.3 µg/mL (≈ 0.955 µM)

**Q.** What about the MIC [13] of the same compound?
**A.** 0.3 µg/mL (≈ 0.955 µM)

**Q.** What about the MIC [14] of the same compound?
**A.** 0.1 µg/mL (≈ 0.318 µM)

**Q.** And the MIC [15]?
**A.** 0.3 µg/mL (≈ 0.955 µM)

**Q.** What about the MIC [16] of the same compound?
**A.** 0.3 µg/mL (≈ 0.955 µM)

**Q.** And the MIC [17]?
**A.** 0.3 µg/mL (≈ 0.955 µM)

**Q.** What about the MIC [18] of the same compound?
**A.** 0.3 µg/mL (≈ 0.955 µM)

**Q.** What about the MIC [19] of the same compound?
**A.** 0.5 µg/mL (≈ 1.59 µM)

**Q.** What about the MIC [20] of the same compound?
**A.** 0.3 µg/mL (≈ 0.955 µM)

**Q.** What about the MIC [21] of the same compound?
**A.** 0.3 µg/mL (≈ 0.955 µM)

**Q.** What about the MIC [22] of the same compound?
**A.** 0.3 µg/mL (≈ 0.955 µM)

**Q.** What about the MIC [23] of the same compound?
**A.** 0.1 to 0.3 µg/mL (≈ 0.318 to 0.955 µM)
